The values that follow come from publication PMC6272893, “NO-Releasing Enmein-Type Diterpenoid Derivatives with Selective Antiproliferative Activity and Effects on Apoptosis-Related Proteins” (Molecules, 2016).

Read-outs that look alike come from different tables or passages of the source.

The subject of one test is Bel-7402 cells. The test is described as follows: MTT antiproliferative assay, Bel-7402. Type of test: cell-based, human. The settings on record: Homo sapiens, Bel-7402; MTT, 72 h, mean ± S.D. of three experiments. Here is the method: [The source words this procedure for another cell line and reports this cell line under the same test.] (§1) Cytotoxicity assay in vitro was employed by the MTT assay following the methodology described previously, which was performed in flat-bottomed 96-well plates. In short, exponentially growing MGC-803 cells at the log phase were added to each well at a density of 5 × 10^3 per well, then treated with serial dilutions of the compounds in three replicates at various concentrations (0.039–40 µg/mL). After 72 h, 20 µL of MTT solution (5 mg/mL) per well was added to each cultured medium. Then, DMSO was added to each well (150 µL/well). After 10 min at room temperature, the absorbance (OD) was read on a microplate reader at the wavelength of 490 nm (BIO-RAD Instruments Inc. 550, Hercules, CA, USA). In these experiments, taxol was used as the positive reference with the concentration of 10 µg/mL.
A general note: Tetrazolium assays rely on reduction of a dye to a coloured formazan, in cell work by metabolically active cells.

Another test deals with L-02 normal liver cells. The test is described as follows: MTT antiproliferative assay, L-02. To be noted: for IC50: 72 h, read-out: antiproliferative activity IC50, L-02. Type of test: cell-based. As to the method: [The source words this procedure for another cell line and reports this cell line under the same test.] as §1
In the next test the test system is K562 cells. The test is described as follows: MTT antiproliferative assay, K562. To be noted: Homo sapiens, K562; MTT, 72 h, mean ± S.D. of three experiments. It counts as cell-based, human. As to the method: [The source words this procedure for another cell line and reports this cell line under the same test.] as §1
A further test relates to MGC-803 cells. The test is described as follows: MTT antiproliferative assay, MGC-803. It counts as cell-based, human. The settings on record: Homo sapiens, MGC-803; MTT, 72 h, mean ± S.D. of three experiments. Here is the method: as §1
Another test deals with CaEs-17 cells. The test is described as follows: MTT antiproliferative assay, CaEs-17. It counts as cell-based, human. The settings on record: Homo sapiens, CaEs17; MTT, 72 h, mean ± S.D. of three experiments. As to the method: [The source words this procedure for another cell line and reports this cell line under the same test.] as §1
The mark [1] stands for this setting: MTT, mean ± S.D. of three experiments.

Take `O=C(O)c1ccccc1C(=O)OCCCOc1no[n+]([O-])c1S(=O)(=O)c1ccccc1` [Compound 7f]: the IC50 (in general, the concentration that gives 50% inhibition) in the test with Bel-7402 cells was 16.7 ± 0.8 µM; in the test with L-02 normal liver cells (setting [1]), 35.8 ± 1.3 µM; with K562 cells, 17.5 ± 1 µM; with MGC-803 cells, 19.3 ± 0.6 µM; in the test on CaEs-17 cells, 19.2 ± 0.7 µM.

Regarding `C=C1C(=O)C23C(=O)OC4CCC(C)(C)C5C(=O)OCC45C2CCC1C3OC(=O)CCC(=O)OCCOc1no[n+]([O-])c1S(=O)(=O)c1ccccc1` (centres unmarked) [Compound 10a], the IC50 turned out to be 1.91 ± 0.09 µM with Bel-7402 cells; 24.4 ± 0.8 µM in the test on L-02 normal liver cells (setting [1]); 2.86 ± 0.05 µM in the test on K562 cells; 2.84 ± 1.12 µM in the test on MGC-803 cells; 5.68 ± 0.53 µM in the test with CaEs-17 cells.

Turning to `O=C(O)CCCC(=O)OCCCOc1no[n+]([O-])c1S(=O)(=O)c1ccccc1` [Compound 7e], the half-maximal inhibitory concentration (IC50) was determined as 18.6 ± 0.8 µM with Bel-7402 cells; 36.3 ± 2.1 µM with L-02 normal liver cells (setting [1]); 18.5 ± 1.6 µM in the test with K562 cells; 20 ± 1.1 µM with MGC-803 cells; 18.7 ± 1 µM with CaEs-17 cells.

On to `O=C(O)CCC(=O)OCCCOc1no[n+]([O-])c1S(=O)(=O)c1ccccc1` [Compound 7d], for which the IC50 worked out at 17.8 ± 1.4 µM in the test on Bel-7402 cells; 37.4 ± 0.8 µM in the test on L-02 normal liver cells (setting [1]); 17.5 ± 1.4 µM in the test with K562 cells; 18.5 ± 0.8 µM in the test with MGC-803 cells; 19.8 ± 1.3 µM in the test with CaEs-17 cells.

`O=C(O)CCC(=O)OCCOc1no[n+]([O-])c1S(=O)(=O)c1ccccc1` [Compound 7a]: the IC50 in the test with Bel-7402 cells was determined as 22 ± 0.8 µM; with L-02 normal liver cells (setting [1]) it was 37.8 ± 1.3 µM; in the test on K562 cells, 22.6 ± 2 µM; in the test with MGC-803 cells, 25.4 ± 1.5 µM; in the test with CaEs-17 cells, 24.3 ± 0.9 µM.

Consider `C=C1C(=O)C23C(=O)OC4CCC(C)(C)C5C(=O)OCC45C2CCC1C3OC(=O)CCCC(=O)OCCCOc1no[n+]([O-])c1S(=O)(=O)c1ccccc1` (centres unmarked) [Compound 10e], for which the IC50 amounted to 1.12 ± 0.09 µM with Bel-7402 cells; 29.3 ± 0.9 µM in the test on L-02 normal liver cells (setting [1]); 2.02 ± 0.17 µM in the test on K562 cells; 1.91 ± 0.09 µM in the test on MGC-803 cells; 4.04 ± 0.23 µM with CaEs-17 cells.

Regarding `C=C1C(=O)C23C(=O)OC4CCC(C)(C)C5C(=O)OCC45C2CCC1C3OC(=O)CCCC(=O)OCCOc1no[n+]([O-])c1S(=O)(=O)c1ccccc1` (centres unmarked) [Compound 10b], the IC50 amounted to 1.75 ± 0.12 µM in the test on Bel-7402 cells; 22.1 ± 1.3 µM with L-02 normal liver cells (setting [1]); 2.9 ± 0.17 µM with K562 cells; 2.67 ± 0.24 µM with MGC-803 cells; 5.56 ± 0.06 µM in the test with CaEs-17 cells.

Take `C=C1C(=O)C23C(=O)OC4CCC(C)(C)C5C(=O)OCC45C2CCC1C3O` (centres unmarked) [Compound 9]: the IC50 in the test on Bel-7402 cells was found to be 16 ± 1.1 µM; in the test on L-02 normal liver cells, 26.4 ± 1.3 µM; in the test on K562 cells it was 2.64 ± 0.19 µM; with MGC-803 cells, 5.84 ± 0.57 µM; with CaEs-17 cells, 23.7 ± 1.8 µM.

For `C=C1C(=O)C23C(=O)OC4CCC(C)(C)C5C(=O)OCC45C2CCC1C3OC(=O)CCC(=O)OCCCOc1no[n+]([O-])c1S(=O)(=O)c1ccccc1` (centres unmarked) [Compound 10d], the half-maximal inhibitory concentration (IC50) in the test on Bel-7402 cells turned out to be 1.17 ± 0.02 µM; in the test on L-02 normal liver cells (setting [1]), 27.4 ± 1 µM; in the test on K562 cells it was 2.04 ± 0.1 µM; in the test on MGC-803 cells it was 2.03 ± 0.15 µM; in the test on CaEs-17 cells, 4.84 ± 0.47 µM.

As for `O=C(O)CCC(=O)OCCCCOc1no[n+]([O-])c1S(=O)(=O)c1ccccc1` [Compound 7g], the concentration for half-maximal inhibition (IC50) with Bel-7402 cells was 22.7 ± 1 µM; with L-02 normal liver cells (setting [1]), 39.4 ± 2.6 µM; with K562 cells it was 24 ± 1.4 µM; in the test on MGC-803 cells it was 20.6 ± 1.7 µM; with CaEs-17 cells it was 25.7 ± 0.7 µM.

In the case of `CC(=O)O[C@H]1C(=O)[C@@]2(C)[C@H]([C@H](OC(=O)c3ccccc3)[C@]3(O)C[C@H](OC(=O)[C@H](O)[C@@H](NC(=O)c4ccccc4)c4ccccc4)C(C)=C1C3(C)C)[C@]1(OC(C)=O)CO[C@@H]1C[C@@H]2O` [Taxol, reference compound], the IC50 stood at 1.89 ± 0.09 µM with Bel-7402 cells; 3.73 ± 0.17 µM with L-02 normal liver cells (setting [1]); 0.41 ± 0.02 µM in the test with K562 cells; 4.65 ± 0.29 µM with MGC-803 cells; 0.43 ± 0.03 µM in the test on CaEs-17 cells.

Turning to `C=C1C(=O)[C@]23[C@H](O)[C@H]1CC[C@H]2[C@@]12CO[C@]3(O)[C@@H](O)[C@@H]1C(C)(C)CC[C@@H]2O` [Compound 1, oridonin, reference compound], the concentration for half-maximal inhibition (IC50) amounted to 7.48 ± 0.32 µM with Bel-7402 cells; 18.3 ± 0.8 µM in the test on L-02 normal liver cells (setting [1]); 4.76 ± 0.32 µM in the test with K562 cells; 5.69 ± 0.39 µM in the test with MGC-803 cells; 11 ± 1 µM in the test on CaEs-17 cells. Moreover, the “SI (selectivity index)” value in the test with L-02 normal liver cells (selectivity between tumor and normal liver cells) was “about 2.4”.

On to `C=C1C(=O)C23C(=O)OC4CCC(C)(C)C5C(=O)OCC45C2CCC1C3OC(=O)c1ccccc1C(=O)OCCCCOc1no[n+]([O-])c1S(=O)(=O)c1ccccc1` (centres unmarked) [Compound 10i], for which the IC50 stood at 1.09 ± 0.09 µM with Bel-7402 cells; 27.7 ± 1.3 µM in the test with L-02 normal liver cells (setting [1]); 2.06 ± 0.16 µM in the test with K562 cells; 1.64 ± 0.12 µM with MGC-803 cells; 4.13 ± 0.29 µM with CaEs-17 cells.

With `C=C1C(=O)C23C(=O)OC4CCC(C)(C)C5C(=O)OCC45C2CCC1C3OC(=O)CCC(=O)OCCCCOc1no[n+]([O-])c1S(=O)(=O)c1ccccc1` (centres unmarked) [Compound 10g], the IC50 in the test with Bel-7402 cells turned out to be 1.85 ± 0.11 µM; with L-02 normal liver cells (setting [1]), 33.9 ± 1.5 µM; with K562 cells it was 2.82 ± 0.22 µM; with MGC-803 cells, 2.8 ± 0.09 µM; in the test with CaEs-17 cells, 5.52 ± 0.08 µM.

For `O=C(O)CCCC(=O)OCCOc1no[n+]([O-])c1S(=O)(=O)c1ccccc1` [Compound 7b], the 50% inhibitory concentration (IC50) with Bel-7402 cells was determined as 22.3 ± 1.6 µM; with L-02 normal liver cells (setting [1]), 39.6 ± 1.4 µM; in the test on K562 cells, 24.2 ± 2.5 µM; in the test on MGC-803 cells, 22.2 ± 2.5 µM; with CaEs-17 cells, 25.7 ± 1.4 µM.

Consider `C=C1C(=O)C23C(=O)OC4CCC(C)(C)C5C(=O)OCC45C2CCC1C3OC(=O)CCCC(=O)OCCCCOc1no[n+]([O-])c1S(=O)(=O)c1ccccc1` (centres unmarked) [Compound 10h], for which the 50% inhibitory concentration (IC50) came to 1.65 ± 0.12 µM with Bel-7402 cells; 29.8 ± 0.9 µM in the test with L-02 normal liver cells (setting [1]); 2.78 ± 0.2 µM in the test with K562 cells; 2.65 ± 0.16 µM in the test on MGC-803 cells; 5.48 ± 0.21 µM in the test on CaEs-17 cells.

With `O=C(O)CCCC(=O)OCCCCOc1no[n+]([O-])c1S(=O)(=O)c1ccccc1` [Compound 7h], the IC50 with Bel-7402 cells worked out at 21.3 ± 0.7 µM; with L-02 normal liver cells (setting [1]), 35.4 ± 1.4 µM; with K562 cells, 24.5 ± 1.4 µM; with MGC-803 cells, 23.5 ± 1 µM; in the test on CaEs-17 cells it was 22.9 ± 1.4 µM.

Turning to `O=C(O)c1ccccc1C(=O)OCCOc1no[n+]([O-])c1S(=O)(=O)c1ccccc1` [Compound 7c], the IC50 in the test with Bel-7402 cells worked out at 19.6 ± 1 µM; with L-02 normal liver cells (setting [1]) it was 41.3 ± 2.9 µM; in the test with K562 cells, 22.6 ± 1.7 µM; in the test on MGC-803 cells, 24.6 ± 1.4 µM; in the test with CaEs-17 cells it was 23.8 ± 1 µM.

For `O=C(O)c1ccccc1C(=O)OCCCCOc1no[n+]([O-])c1S(=O)(=O)c1ccccc1` [Compound 7i], the IC50 with Bel-7402 cells is 22.4 ± 1.6 µM; in the test with L-02 normal liver cells (setting [1]) it was 37.9 ± 2.8 µM; in the test with K562 cells it was 23 ± 1.2 µM; in the test with MGC-803 cells, 21.6 ± 1.5 µM; in the test on CaEs-17 cells, 24.8 ± 1.5 µM.

As to `C=C1C(=O)C23C(=O)OC4CCC(C)(C)C5C(=O)OCC45C2CCC1C3OC(=O)c1ccccc1C(=O)OCCOc1no[n+]([O-])c1S(=O)(=O)c1ccccc1` (centres unmarked) [Compound 10c], the concentration for half-maximal inhibition (IC50) in the test on Bel-7402 cells came to 1.01 ± 0.04 µM; with L-02 normal liver cells (setting [1]), 31.2 ± 1.2 µM; in the test on K562 cells, 1.97 ± 0.18 µM; in the test on MGC-803 cells, 1.6 ± 0.15 µM; with CaEs-17 cells, 4.02 ± 0.14 µM.
